This note sets out measurements from patent publication US20040219217A1, “Conjugates of polysaccharide polymers of natural origin” (priority 2001, published 2004).

Data set [1] is described as follows: in vitro cleavage of the conjugation in artificial sweat. The class given is physicochemical. The following applies: 18 h hydrolysis, skin's usual pH, 37° C. As to the method:
In the following table 2, different chemical conjugations contemplated by the present invention have been tested for in vitro cleavage under conditions simulating the topical application of the polysaccharide polymers of the present invention to the skin. In particular, for evaluating the biodegradability of a given chemical conjugation established between cotton and an active substance, the conjugate is subjected to hydrolysis at the skin's usual pH at 37° C. under mild agitation in the presence of an enzymatic mixture known as “artificial sweat”. After the pre-established time period of contact with the hydrolysis medium, the same was analyzed for the active substances or their fragments contained therein. The examples as listed below were chosen on the following grounds: […]

Another data set has as its system Candida albicans. The data set can be described thus: plate culture growth under derivatized cotton gauze. The class given is cell-based. Conditions: C. albicans, 24 hours at 37° C., vs normal growth conditions. An excerpt:
(§1) 2. Evaluation of the influence of cotton derivatized with germicides, with anti-bacterial or anti-fungi agents in the development and amount of microorganic flora.
(§2) The influence of suitably derivatized cotton fibre on the development of microorganic flora has been determined “in vitro” on plate growing cultures of various micro-organisms: Candida albicans, Escherichia coli, Staphylococcus aureus isolated and characterized by contaminated organic material.
(§3) To this purpose growth selective mediums are prepared (sabouraud agar for fungi and nutrient agar for bacteria) with which Petri dishes are prepared.
(§4) On the medium surface the microorganism culture is applied by deposition of one ml of a suspension of said microorganism containing 10^9 microorganisms, lightly agitating so as to cover the whole plate surface.
(§5) A cotton gauze obtained from fibre derivatized with the various substances taken into consideration is then applied onto the surface; the whole is then placed in a thermostat at 37° C.
(§6) After 24 hours the gauze is removed and the developed colonies are compared with plates in normal growth conditions.
(§7) The reduction in percentage of the growth in the plates characterized by conjugated gauze is evaluated with respect to normal growth conditions.

A further data set has as its system Staphylococcus aureus. Described as above. The data set is classed as cell-based. The following applies: S. aureus, 24 hours at 37° C., vs normal growth conditions.
Excerpt: as §1, §2, §3, §4, §5, §6, §7

For another data set, the system named is Escherichia coli. The data set is described as above. The class given is cell-based. The following applies: E. coli, 24 hours at 37° C., vs normal growth conditions.
Excerpt: as §1, §2, §3, §4, §5, §6, §7

A further data set deals with mite population. Conditions: dust collected after two days, vs underivatized fabrics. As for the experimental part: 8. Performance of anti-mite fabrics.
Cotton fibres conjugated to acaricides (as set out in the chemical experimental part above) were used for obtaining fabrics (woven and non-woven) used in turn for the manufacture of household articles (curtains, carpet floor and the like) placed in living environments. In particular, living environments (flats, apartments and houses) at the countryside at locations particularly exposed to dust and ventilation were chosen. Moreover, the tests were conducted during spring, which is the period with the highest mite contamination risk.
After two days of total exposure of the living environments to the open air, at the point in time zero, the dust was removed through vacuum cleaning and the presence and the status of the mite population contained therein was subjected to microscopic examination. Thereafter, some of the living environments, after appropriate randomization, were equipped with the fabrics according to the invention obtained from fibres conjugated to acaricides, thus making up a first test group. On the other hand, the remaining living environments were equipped with fabrics from customary cotton thereby making up a second test group as a control for the development of the mite population.
After another two days, the dust from both of the test groups was collected and the overall number of mites as well as the number of living mites was established.

In data set [2] the test system is granuloma from cotton pellets. In words: induction of granuloma from cotton pellets. The data set is classed as in vivo. The following applies: rats, subcutaneous cotton pellet 1 g, after fifteen days, vs simple cotton. An excerpt: 3. Influence of fibre derivatized with anti-inflammatories or with immunostimulating agents on the phlogogenic process.
The experiments have been carried out on rats through the test of induction of granuloma from “cotton pellets”.
According to this test cotton pellets having a pre-established weight (1 g) and shape are introduced into the subcutaneous region of the subaxillary area of the animals using a cannula which can pierce the skin and the sub-skin (the scar is closed again with a suture stitch).
Around the cotton pellet a “granuloma” collagen deposit is formed, whose entity is proportional to the phlogogenic process.
After fifteen days from the operation the granuloma is taken from the animal under anesthesia and it is weighed to determine its entity.
In the present case the cotton used as a base for the implantation of the granuloma consists of: […]

Another data set relates to UV-induced edema in skin. In words: UV-induced edema (erythema) in rats' skin. The following applies: daily application, vs animals with no application. The data set is classed as in vivo. As to the method: 6. Influence of the application of derivatized cotton fibres on UV-induced edema in rats' skin.
Adult rats are depilated on their backs and are then exposed to UV radiations until a consistent skin edema forms.
The exposition is carried out only on pre-established circular areas using suitable pierced masks.
Then normal cotton gauzes (controls) or gauzes obtained from fibre derivatized with a medicament are applied with a good adherence onto the inflamed areas. Simultaneously another group of animals is tested to check the effectiveness of the application of the same medicaments in form of 5% gel.
The regression of the erythema defined as the reduction of the entity and surface of the reddening area is controlled daily with respect to control animals with no application, and immediately afterwards the medicament is applied again in the various forms.
On the 5th day the average extension of the erythema surface is measured and its reduction in percentage with respect to the animals with no application is calculated.

For data set [3], the system named is experimental sclerosis in femoral veins. In words: experimental sclerosis in rabbits' femoral veins. The class given is in vivo. The following applies: rabbit femoral vein, carbon tetrachloride as sclerotizing agent, gauze bandage, after ten days. As for the experimental part: 4. Influence of the application of derivatized cotton fibres on the entity of experimental sclerosis in rabbits' femoral veins.
After a suitable depilation a rabbit's femoral vein is closed for a length of about 5 cm by means of suture stitches downstream and upstream.
Within the separated area 0.05 ml of carbon tetrachloride in 10% solution (Fluka 87031) is added as sclerotizing agent.
The area is suitably bandaged with normal cotton gauzes (control) or derivatized gauzes so that they perfectly adhere to the treated area.
After ten days the vein fragments undergoing stasis are taken and controlled with a microscope to check the parietal state and the consistency of the sclerotizing deposits.
It is thus possible to observe how the application in the area receiving layers of derivatized cotton gauzes with: […]

Data set [4] has as its system subcutaneous lipid deposit. The data set can be described thus: experimental subcutaneous lipid deposit in rats. Conditions: abdominal tissue, gauze applied from the eighth day, after thirty days. The class given is in vivo. As for the experimental part: 7. Influence of the application of derivatized cotton fibres on experimental subcutaneous lipid deposit in rats.
The experiments were carried out on adult rats by injecting into their subcutaneous abdominal areas a lipid fraction rich in cholesterol (Sigma L 4646), and daily repeating the administrations until a stabilized subcutaneous lipid deposit is obtained; the fat mixture is injected in six adjacent sites in a volume of 0.2 ml/location for 7 days.
Then, from the eighth day on, cotton gauzes obtained from fibre derivatized with lipase (example II.F. above) are applied onto said areas in a perfectly adhering way.
After thirty days the animals are killed and the treated abdomen areas is taken. Aliquots of said area of about 2 g, precisely weighed, are homogenized in a Waring blender and the lipid content is extracted by adding aliquots of ethyl ether under strong stirring: three extractions with 20 ml of solvent each.
The ether fractions are mixed and concentrated in a rotary evaporator until dryness.
The concentration/g of extracted lipid tissue is determined by weighing said extracts.

Turning to cotton-CH2—NH-lys-NH—CH2-Ph-OH, the “% of released active principle” value in data set [1] came out at 1.2%. Also, the results for the “% reduction in the development of colonies” value (shortened to “% reduction … of colonies”) in the data set with Candida albicans, in the data set on Staphylococcus aureus and with Escherichia coli were 75%, 85% and 85%, respectively.
As to “cotton-CH2—NH-lys-NH—CO-PABA-benzyl benzoate [III.B.2.1.2.]”, the “Decrease (%) of total living mite population” value (“Decrease (%)” for short) in the data set on mite population is reported as 59%.
As to “cotton-CH2—NH-polylys-(NH—CO-PABA-benzylbenzoate)n [III.B.2.2.2.]”, the “Decrease (%)” value in the data set on mite population turned out to be 100%.
As to cotton-CH═N-bacitracin, the “% reduction … of colonies” value was determined as 65% in the data set on Candida albicans, 95% in the data set with Staphylococcus aureus and 75% in the data set with Escherichia coli.
For the substance cotton-CH═N-gramicidin, the “% reduction … of colonies” value in the data set on Candida albicans was found to be 65%; in the data set on Staphylococcus aureus, 90%; with Escherichia coli, 80%.
Consider “cotton-CH═N-lys-NH—CO-PABA-benzylbenzoate [III.B.2.1.1.]”, for which the “Decrease (%)” value in the data set with mite population is recorded as 58%.
Consider “cotton-CH═N-polylys-(NH—CO-PABA-benzylbenzoate)n [III.B.2.2.1.]”, for which the “Decrease (%)” value in the data set on mite population was 94%.
On to cotton-CH═N-procaine [Cotton/procaine], for which the “% of released active principle” value in data set [1] worked out at 76.3%.
Consider cotton-S-S-cys-PABA-hydrocortisone, for which the “% reduction in the weight of the granuloma” value (“% reduction in the weight” below) in data set [2] came to 55.0%. Moreover, the “% reduction of the erythema extension with respect to controls on the 5th day after the induction” value in the data set on UV-induced edema in skin is 60.0%.
“cotton-S-S-cys-polylys-(PABA-hydrocortisone)n”: the “% reduction in the weight” value in [2] is 90.0%. Besides, the “% reduction of the erythema extension with respect to controls on the 5th day after the induction” value in the data set with UV-induced edema in skin is listed as 95%.
As to cotton-S-S-cys-polylys-naproxen, in data set [2], the “% reduction in the weight” value came to 64.0%.
Regarding cotton-S—S-IgG [Cotton/IgG], the “% of released active principle” value in [1] was found to be 40.8%.
Turning to cotton-S—S—CH2—CH(COOH)—NH—CO-naproxen, the “% reduction in the weight” value in data set [2] is recorded as 30.0%.
On to cotton-S—S—CH2—CH(COOH)—N═CH-heparin, for which, in [3], the tissue sclerotic state entry is “reduce the tissue sclerotic state to a consistent extent”. Further, the “% of released active principle” value in [1] turned out to be 50.4%.
Take “cotton-S—S—CH2—CH(NH—CO-lipase)-CO—NH-lipase”: the “lower lipid content than the controls” value in data set [4] worked out at 45%.
